Assay results taken from patent US20260315434A1, “USE OF GUAIACOL SESQUITERPENE LACTONE DERIVATIVES” (NANJING UNIVERSITY OF CHINESE MEDICINE, priority 2023, published 2026).
Converted amounts (≈) assume the structure as drawn.

Tests used:
[1] = test system: serum creatinine and blood urea nitrogen; assay: Diabetic nephropathy (STZ/HFD), serum creatinine and BUN; assay type: in vivo, C57/BL6J mice; conditions: 8 weeks
Procedure: (§1) Experimental animals: C57/BL6J mice, male, 12 weeks old, purchased from GemPharmatech LLC. Production license number: SCXK(Su)2023-0009. […] Animals were acclimated for 7 days before use in experiments.
(§2) Administer streptozotocin (STZ, 50 mg/kg) via intraperitoneal injection for 5 consecutive days. After 72 hours, select mice with fasting blood glucose levels exceeding 16.7 mmol/L as model mice. […] Model mice were fed a high-fat diet (HFD) providing 60% of energy from fat for 8 weeks. After 8 weeks, gavage administration commenced.
(§3) Specimen Collection: One hour after the last drug administration, enucleate the eyeball to collect blood. Allow blood to stand at room temperature for 2 hours, then centrifuge at 3000 rpm for 20 minutes. Aspirate the serum, aliquot it, and store at −70° C. for future use. After blood collection, euthanize the mice by cervical dislocation. Open the abdominal cavity, remove the kidneys, and dissect away the perirenal fat and capsule. Store the tissue at −70° C. for future use.
Serum Creatinine (Scr) and Blood Urea Nitrogen (BUN) Assay: For each sample, 10 μL of serum was used for creatinine and urea level detection. Samples were added sequentially strictly following the kit instructions. After incubation at 37° C., absorbance values were measured using an enzyme-linked immunosorbent assay (ELISA) reader. The concentration levels of each indicator were calculated based on the standard curve.

[2] = test system: renal injury markers (Kim-1, Ngal) in kidney tissue; assay: Diabetic nephropathy, renal injury marker mRNA; assay type: in vivo, C57/BL6J mice; conditions: 8 weeks
Procedure: as §1, §2, §3

[3] = test system: Hepa1-6 cells; assay: Antitumor efficacy combined with anti-PD-L1 monoclonal antibody, Hepa1-6 xenograft; assay type: in vivo, C57BL/6 mice; conditions: for combination with anti-PD-L1 monoclonal antibody vs. single agents, Hepa1-6: 1 mg/kg/day i.p., 2 weeks, result in words
Procedure: Hepa1-6 cells were cultured and expanded in vitro. An appropriate number of cells in the logarithmic growth phase was resuspended in a mixture of serum-free DMEM medium and Matrigel (1:1). Under sterile conditions, prepare a cell suspension at 2.5×10^6 cells/100 μL. Using a syringe, inject 100 μL of the cell suspension subcutaneously into the left forelimb axilla of male C57BL/6 mice. […] Compounds 20 and 103 were administered via intraperitoneal injection daily, while anti-PD-L1 monoclonal antibody was administered intraperitoneally every three days for a total of two weeks. During the treatment period, mouse body weight and tumor diameter were measured daily. At the end of the experiment, mice were euthanized by cervical dislocation, and tumors were removed and weighed. Tumor volume (TV) was calculated using the formula: TV=½×a×b^2, where a represents the longest diameter of the tumor and b represents the shortest diameter.

[4] = Water solubility testing of compounds (HPLC); conditions: deionized water, water, Water-solubility, 37 °C
[5] = test system: inflammatory factors (TNF, IL-6, IL-1) in renal tissue; assay: Lupus nephritis, renal inflammatory factor mRNA; assay type: in vivo, MRL/lpr mice; conditions: 8 weeks
Procedure: Experimental animals: MRI/MpJ and MRL/lpr mice, female, 10 weeks old, purchased from GemPharmatech LLC. Production license number: SCXK(Su)2023-0009. […] They were acclimated for 7 days before use in experiments.
Oral administration was performed continuously for 8 weeks.
Allow blood to stand at room temperature for 2 hours, then centrifuge at 3000 rpm for 20 minutes. Aspirate the serum, aliquot it, and store at −70° C. for future use. After blood collection, euthanize mice by cervical dislocation. Open the abdominal cavity, remove kidneys, and dissect out perirenal fat and capsules. […] Store remaining tissues at −70° C. for future use.

[6] = test system: inflammatory cytokines (IL-1β, IL-6) in lung tissue; assay: LPS-induced acute lung injury, inflammatory cytokines by ELISA; assay type: in vivo, C57BL/6 mice; conditions: for IL-1β: LPS 2411.32; for IL-6: LPS 3520.94
Procedure: After a 7-day acclimatization period, mice were used for subsequent experiments.
The abdomen was opened, and the lungs were removed. They were rinsed twice with pre-chilled PBS. […] The remaining tissue was stored at −70° C. for future use.
Data Statistics: All data are expressed as means S.E.M. Statistical differences between groups were analyzed using one-way ANOVA and t-tests in SPSS software. P values less than 0.05 were considered statistically significant.

[7] = test system: heart failure; conditions: human, in vivo; cited from earlier work
[8] = test system: MDSCs; assay: Inhibition of MDSC chemotaxis (Transwell, tumor-conditioned medium); assay type: cell-based, mouse; conditions: Mus musculus, read-out: Suppression Rate (MDSC chemotaxis)
Procedure: Hepa1-6 mouse hepatocellular carcinoma cells were uniformly seeded into 6-well plates. After cells reached confluence, supernatant was aspirated, and 1-1.5 mL fresh medium was added to each well. Following 24 h culture, supernatant was collected, centrifuged at 1600 rpm for 5 min, aspirated, and filtered through a 0.22 μm membrane to obtain tumor-conditioned medium for subsequent use. […] Under sterile conditions, remove the tibia, cut both ends of the bone, and aspirate the bone marrow into a 1 mL syringe. Repeat flushing into a 15 mL centrifuge tube. Centrifuge at 1600 rpm for 5 min to collect bone marrow cells. Wash twice with 1×PBS. […] Count cells, adjust density to 1×10^6 cells/mL, and uniformly seed into 24-well plates at 300 μL per well. […] Centrifuge at 1600 rpm for 5 min, remove supernatant, resuspend cells in 300 μL fresh medium, and place into Transwell chambers. […] Co-culture for 24 h.

[9] = 8 h; cited from earlier work
[10] = Safety evaluation, mouse survival rate (30 days oral); assay type: in vivo, C57BL/6 mice; conditions: for survival at 720 h: mouse, in vivo, female, oral
Text: The Normal group received an equal volume of solvent (saline).

[11] = dose 1 (head μmol/kg/day; text 1 mg/kg/day), i.p. daily, two weeks, Hepa1-6

Row | SMILES | Kim-1 mRNA expression, kidney ([2]; 1 mg/kg gavage) | Ngal mRNA expression, kidney ([2]; 1 mg/kg gavage) | Kim-1 mRNA expression, kidney ([2]; 10 mg/kg gavage) | Ngal mRNA expression, kidney ([2]; 10 mg/kg gavage) | combination with anti-PD-L1 monoclonal antibody vs. single agents, Hepa1-6 [3] | solubility [4] [mg/mL] | Il1 mRNA expression, kidney ([5]; 30 mg/kg oral) | Il6 mRNA expression, kidney ([5]; 30 mg/kg oral) | Tnf mRNA expression, kidney ([5]; 30 mg/kg oral) | IL-1β ([6]; 0.1 mg/kg) [pg/mL] | IL-6 ([6]; 0.1 mg/kg) [pg/mL] | IL-1β ([6]; 1 mg/kg) [pg/mL] | IL-6 ([6]; 1 mg/kg) [pg/mL] | also measured
1 | CC1=C2CC[C@@](C)(OC(=O)N3CCCC3)[C@@H]2[C@H]2OC(=O)[C@@H](CN3CCCC3)[C@@H]2CC1 [Compound 103] | 0.98 ± 0.41 | 2.34 ± 0.39 | 0.75 ± 0.24 | 2.08 ± 0.34 | synergistic effect | 278 (≈ 668 mM) | 4.11 ± 0.41 | 1.83 ± 0.91 | 4.10 ± 0.67 |  |  |  |  | BUN ([1]; 1 mg/kg gavage): 54.34 ± 10.67; Scr (serum creatinine) ([1]; 1 mg/kg gavage): 23.48 ± 6.73; BUN ([1]; 10 mg/kg gavage): 38.10 ± 2.88; Scr (serum creatinine) ([1]; 10 mg/kg gavage): 14.90 ± 8.06; Tumor inhibition rate (%) [3, 11]: 62.26%; Tumor weight [3, 11]: 0.16 ± 0.05 g; Il1 mRNA expression, kidney ([5]; 10 mg/kg, oral): 6.78 ± 0.96; Il6 mRNA expression, kidney ([5]; 10 mg/kg, oral): 2.47 ± 0.53; Tnf mRNA expression, kidney ([5]; 10 mg/kg, oral): 7.24 ± 3.10
2 | CN(C)C[C@@H]1C(=O)O[C@H]2[C@H]1CC[C@@]1(C)C[C@]13CC[C@@](C)(O)[C@H]23 [Compound 21] |  |  |  |  |  |  |  |  |  | 1623.55 ± 32.64 | 2585.26 ± 273.50 | 888.28 ± 35.20 | 1288.32 ± 123.80 | 
3 | C=C1C(=O)O[C@@H]2[C@H]3C(C)=CC[C@@]34O[C@@]4(C)CC[C@@H]12 [Arg, Arglabin, reference compound] |  |  |  |  |  |  |  |  |  |  |  |  |  | cardiac inflammation [7]: inhibited; inhibition at 1 µM [8]: 42.5%; inhibition at 10 µM [8]: 73.2%; degradation rate in gastric fluid [9]: 50%
4 | CN(C)C[C@@H]1C(=O)O[C@H]2[C@H]1CC[C@@]1(C)C[C@]13CC[C@@](C)(O)[C@H]23 [Compound 20] | 1.68 ± 0.17 | 1.38 ± 0.17 | 0.64 ± 0.10 | 0.96 ± 0.13 | synergistic effect |  | 6.01 ± 0.99 | 11.80 ± 1.90 | 4.04 ± 0.33 | 1570.02 ± 62.95 | 2348.32 ± 202.75 | 708.74 ± 38.40 | 1172.00 ± 240.50 | tumor inhibition rate, combination ([3]; 1 mg/kg/d i.p. combined with anti-PD-L1 monoclonal antibody (5 mg/kg/d)): 96.99%; survival rate ([10]; 500 and 1000 mg/kg oral): no significant effect; survival at 720 h ([10]; 500 mg/kg): 100%; survival at 720 h ([10]; 1000 mg/kg): 100%
5 | CC1=C2CC[C@@](C)(OC(=O)N3CCCCC3)[C@@H]2[C@H]2OC(=O)[C@@H](CN(C)C)[C@@H]2CC1 [Compound 102] |  |  |  |  |  | 132 (≈ 328 mM) |  |  |  |  |  |  |  | 
